How the values were obtained:
[1] = biological target: T1, human recombinant adrenergic α2A receptor (Homo sapiens, UniProt P08913); test: Adrenergic α2A radioligand binding ([3H]MK-912); design: Inhibition of ligand binding, Adren. alpha2A: concentration or dose not given beside the values; conditions: percent inhibition of specific binding
T1 construct: expressed in transfected cells; host or cells: insect Sf9 cells
T1 sequence (P08913 1-465): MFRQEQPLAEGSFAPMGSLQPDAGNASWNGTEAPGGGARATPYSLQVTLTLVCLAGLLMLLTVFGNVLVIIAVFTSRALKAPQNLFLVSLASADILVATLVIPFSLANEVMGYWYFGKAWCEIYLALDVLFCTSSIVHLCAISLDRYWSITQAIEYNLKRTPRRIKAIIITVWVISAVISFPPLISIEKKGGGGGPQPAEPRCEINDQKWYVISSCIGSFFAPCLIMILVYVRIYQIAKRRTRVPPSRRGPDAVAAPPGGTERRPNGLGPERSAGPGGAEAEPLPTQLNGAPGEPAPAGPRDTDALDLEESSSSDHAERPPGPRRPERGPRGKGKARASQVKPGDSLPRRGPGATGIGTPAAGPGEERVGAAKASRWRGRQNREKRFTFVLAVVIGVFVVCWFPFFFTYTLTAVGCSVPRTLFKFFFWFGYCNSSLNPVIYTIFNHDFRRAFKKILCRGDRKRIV
Procedure, shortened: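 Membranes from Sf9 cells expressing the receptor were incubated with 1 nM [3H]MK-912 for 60 minutes at 25° C in 50 mM Tris-HCl pH 7.4, 12.5 mM MgCl2, 2 mM EDTA. 10 μM WB-4101 defined non-specific binding. Values are percent inhibition of specific bound radioactivity after filtration.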

[2] = test system: adrenergic receptors α1D, α2A, α2B; serotonin receptor 5-HT6; dopamine receptor D2L; test: Classification of compounds (Type 1-4) from receptor binding and neurite outgrowth
From the text: Compounds of the invention that inhibit binding of a ligand to adrenergic receptors α1D, α2A, α2B and serotonin receptor 5-HT6 by at least about 80% as determined in a suitable assay such as the assays described herein can be classified as Type 1 compounds. […] In one variation, binding of a ligand to serotonin receptor 5-HT7 is at least about 80%. […] Weak inhibition of binding of a ligand to the histamine H1 receptor is permitted as agonists of this receptor have been implicated in stimulating memory as well as weight gain. In one variation, binding to histamine receptor H1 is inhibited by less than about 80%. […] Compounds that inhibit binding of a ligand to the dopamine D2L receptor by at least about 80% as determined in a suitable assay such as the assay described herein can be classified as Type 2 compounds.
In one variation, Type 1 compounds further inhibit binding of a ligand to dopamine receptor D2L by less than about 80% as determined in a suitable assay known in the art such as the assay described herein. […] In one variation, binding of a ligand to serotonin receptor 5-HT7, 5-HT2A and/or 5-HT2C is inhibited by at least about 80% as determined in a suitable assay such as the assays described herein. […] In one variation, binding of a ligand to histamine receptor H1 and/or H2 is inhibited by less than about 80% as determined by a suitable assay known in the art such as the assays described herein.
In one variation, biding to serotonin receptor 5-HT2A is inhibited by at least about 80% as determined in a suitable assay know in the art such as the assay described herein.

[3] = biological target: T2, human recombinant serotonin (5-Hydroxytryptamine) 5-HT2C receptor (Homo sapiens, UniProt P28335); test: Serotonin 5-HT2C radioligand binding ([3H]Mesulergine); design: Inhibition of ligand binding, Ser. 5-HT2C: concentration or dose not given beside the values; conditions: percent inhibition of specific binding
T2 construct: expressed in transfected cells; host or cells: CHO-K1 cells
T2 sequence (P28335 33-458): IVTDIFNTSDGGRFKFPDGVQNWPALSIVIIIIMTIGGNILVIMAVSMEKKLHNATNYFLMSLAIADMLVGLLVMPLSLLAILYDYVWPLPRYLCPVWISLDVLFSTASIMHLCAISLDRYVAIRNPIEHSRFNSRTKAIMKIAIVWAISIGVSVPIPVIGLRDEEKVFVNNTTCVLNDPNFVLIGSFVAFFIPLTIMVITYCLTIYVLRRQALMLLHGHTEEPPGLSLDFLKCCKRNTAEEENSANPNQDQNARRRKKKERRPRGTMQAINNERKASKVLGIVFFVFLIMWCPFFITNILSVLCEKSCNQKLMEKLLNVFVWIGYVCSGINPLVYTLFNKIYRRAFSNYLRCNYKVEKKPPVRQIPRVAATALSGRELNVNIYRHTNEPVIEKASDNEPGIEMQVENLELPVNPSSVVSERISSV
Description: Compounds of the invention were incubated with 1 nM [^3H]Mesulergine for 60 minutes at 25° C. Non-specific binding was estimated in the presence of 1 μM Mianserin. Receptor proteins were filtered and washed, the filters were then counted to determine [^3H]Mesulergine specifically bound. […] Biochemical assay results are presented as the percent inhibition of specific binding in Table 6.

[4] = biological target: T3, human recombinant serotonin (5-Hydroxytryptamine) 5-HT6 receptor (Homo sapiens, UniProt P50406); test: Serotonin 5-HT6 radioligand binding ([3H]LSD); design: Inhibition of ligand binding, Ser. 5-HT6: concentration or dose not given beside the values; conditions: percent inhibition of specific binding
T3 construct: expressed in transfected cells; host or cells: human HeLa cells
From the text: Receptor proteins were filtered and washed, the filters were then counted to determine [3H]LSD specifically bound. […] Biochemical assay results are presented as the percent inhibition of specific binding in Table 6.

[5] = biological target: T4, Serotonin (5-Hydroxytryptamine) 5-HT7 (Homo sapiens, UniProt P34969); test: Serotonin 5-HT7 radioligand binding ([3H]LSD); design: Inhibition of ligand binding, Ser. 5-HT7: concentration or dose not given beside the values; conditions: percent inhibition of specific binding
T4 construct: expressed in transfected cells; host or cells: CHO cells
Description: Lysergic acid diethylamide (LSD) for 2 hours at 25° C. […] Receptor proteins were filtered and washed, the filters were then counted to determine [^3H]LSD specifically bound. […] Biochemical assay results are presented as the percent inhibition of specific binding in Table 6.

T3 sequence (P50406 whole entry): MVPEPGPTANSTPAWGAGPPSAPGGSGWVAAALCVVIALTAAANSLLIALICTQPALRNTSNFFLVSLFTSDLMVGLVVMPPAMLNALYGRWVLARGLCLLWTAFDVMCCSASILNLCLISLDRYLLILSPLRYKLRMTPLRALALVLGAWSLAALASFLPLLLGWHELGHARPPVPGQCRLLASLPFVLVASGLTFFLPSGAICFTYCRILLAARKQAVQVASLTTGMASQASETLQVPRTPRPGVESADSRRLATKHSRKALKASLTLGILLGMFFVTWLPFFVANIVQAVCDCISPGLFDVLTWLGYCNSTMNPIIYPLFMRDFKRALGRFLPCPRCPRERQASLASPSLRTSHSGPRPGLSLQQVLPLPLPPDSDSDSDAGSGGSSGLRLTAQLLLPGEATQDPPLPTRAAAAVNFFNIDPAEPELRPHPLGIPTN
T4 sequence (P34969 whole entry): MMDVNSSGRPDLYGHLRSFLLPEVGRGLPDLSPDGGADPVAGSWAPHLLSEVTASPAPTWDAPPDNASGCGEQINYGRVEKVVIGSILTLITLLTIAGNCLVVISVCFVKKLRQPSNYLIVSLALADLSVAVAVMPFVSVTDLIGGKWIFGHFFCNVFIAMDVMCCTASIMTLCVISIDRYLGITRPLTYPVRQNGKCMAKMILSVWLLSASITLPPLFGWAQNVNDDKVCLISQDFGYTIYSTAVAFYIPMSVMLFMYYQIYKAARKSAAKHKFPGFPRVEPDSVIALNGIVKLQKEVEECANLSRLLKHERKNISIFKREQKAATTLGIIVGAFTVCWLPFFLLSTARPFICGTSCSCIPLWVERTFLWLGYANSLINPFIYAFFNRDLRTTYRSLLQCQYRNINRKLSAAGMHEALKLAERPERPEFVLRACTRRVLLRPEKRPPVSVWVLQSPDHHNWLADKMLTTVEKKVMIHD

| SMILES | Inhibition of ligand binding, Adren. alpha2A [1] [%] | compound type (classification by receptor binding profile and neurite outgrowth) [2] | Inhibition of ligand binding, Ser. 5-HT2C [3] [%] | Inhibition of ligand binding, Ser. 5-HT6 [4] [%] | Inhibition of ligand binding, Ser. 5-HT7 [5] [%] |
| --- | --- | --- | --- | --- | --- |
| Cc1ccc(C(O)Cn2c3c(c4cc(C)ccc42)CN(C)CC3)cc1 (racemic) [Compound 28, racemic-2-(1,2,3,4-tetrahydro-2,8-dimethylpyrido[4,3-b]indol-5-yl)-1-p-tolylethanol] | 100 | Type one | 100 | 99 |  |
| CN1CCc2c(c3cc(Cl)ccc3n2CCc2cccnc2)C1 [Compound 55] | 86 | Type one | 87 | 94 |  |
| Cc1ccc2c(c1)c1c(n2CCc2cccnc2)CCN(C)C1 [Compound 60] | 84 | Type one | 90 | 91 |  |
| CN1CCc2c(c3ccc(Cl)cc3n2CCC2CCCCC2)C1 [Compound 188, 7-chloro-5-(2-cyclohexylethyl)-2,3,4,5-tetrahydro-2-methyl-1H-pyrido[4,3-b]indole] | 80 |  | 66 | 67 | 41 |
| Cc1ccc2c(c1)c1c(n2CCc2ccc(C)nc2)CC(=O)N(C)C1 [Compound 195, 1,2-dihydro-2,8-dimethyl-5-(2-(6-methylpyridin-3-yl)ethyl)-4H-pyrido[4,3-b]indol-3(5H)-one] | 4 |  | −5 | 8 | 2 |
| Cc1ccc2c(c1)c1c(n2CCc2ccccc2)CC(O)N(C)C1=O (stereo not drawn) [Compound 215, 3,4-dihydro-3-hydroxy-2,8-dimethyl-5-phenethyl-2H-pyrido[4,3-b]indol-1(5H)-one] | 23 |  | 2 | 8 | 10 |
| Cc1ccc2c(c1)c1c(n2CCc2ccc(C)nc2)CCN(C)C1=O [Compound 216] | 15 |  | −11 | −8 | 18 |
| Cc1ccc2c(c1)c1c(n2CCN2CCCCC2)CCN(C)C1 [Compound 224, 2,3,4,5-tetrahydro-2,8-dimethyl-5-(2-(piperidin-1-yl)ethyl)-1H-pyrido[4,3-b]indole] | 57 |  | 74 | 43 | 61 |
| Cc1ccc(CCn2c3c(c4cc(Cl)ccc42)CN(C)CC3)cn1 [Compound 225, 8-chloro-2,3,4,5-tetrahydro-2-methyl-5-(2-(6-methylpyridin-3-yl)ethyl)-1H-pyrido[4,3-b]indole] | 91 | Type one | 91 | 81 |  |
| Cc1ccc2c(c1)c1c(n2CCc2ccccc2)CCN(C(=O)OCC(Cl)(Cl)Cl)C1 [Compound 227, 2,2,2-trichloroethyl 3,4-dihydro-8-methyl-5-phenethyl-1H-pyrido[4,3-b]indole-2(5H)-carboxylate] | 0 |  | 4 | 9 | −8 |
| Cc1ccc2c(c1)c1c(n2CCc2ccccc2)CCNC1 [Compound 228, 2,3,4,5-tetrahydro-8-methyl-5-phenethyl-1H-pyrido[4,3-b]indole] | 87 |  | 82 | 89 | 95 |
| CN1CCc2c(c3cc(F)ccc3n2CCc2ccc(F)cc2)C1 [Compound 253] | 93 |  | 93 | 105 | 87 |
| Cc1ccc2c(c1)c1c(n2CCc2ccc(C(=O)O)nc2)CCNC1 [Compound 262] | 8 |  | 6 | −4 | 6 |
| CN1CCc2c(c3cc(Cl)ccc3n2CCn2cccc2)C1 [Compound 349, 8-Chloro-2-methyl-5-(2-pyrrol-1-yl-ethyl)-2,3,4,5-tetrahydro-1H-pyrido[4,3-b]indole] | 96 |  | 98 | 101 | 100 |
| Cc1ccc2c(c1)c1c(n2CCC(=O)N2CCC(NC(=O)OC(C)(C)C)CC2)CCN(C)C1 [Compound 393, tert-butyl 1-(3-(1,2,3,4-tetrahydro-2,8-dimethylpyrido[4,3-b]indol-5-yl)propanoyl)piperidin-4-ylcarbamate] | 98 |  | 26 | 3 | 8 |
| Cc1ccc2c(c1)c1c(n2CCc2ccc(C)[n+]([O-])c2)CCN(C)C1 [Compound 394, 5-(2-(2,8-dimethyl-3,4-dihydro-1H-pyrido[4,3-b]indol-5(2H)-yl)ethyl)-2-methylpyridine 1-oxide] | 15 |  | −8 | 5 | 7 |
| Cc1ccc2c(c1)c1c(n2CC(=O)N2CCCCC2)CCN(C)C1 [Compound 395, 2-(1,2,3,4-tetrahydro-2,8-dimethylpyrido[4,3-b]indol-5-yl)-1-(piperidin-1-yl)ethanone] | 4 |  | 50 | 0 | 24 |
| CC(Cn1c2c(c3ccccc31)CN(C)CC2)c1ccc(F)cc1 (stereo not drawn) [Compound 455] | 93 |  | 97 | 99 | 98 |

From US9096591B2, “Tetracyclic compounds” (Medivation Technologies, Inc., priority 2007, dated 2015)
